Assay results from patent US11306084B2, “Integrin antagonists” (Saint Louis University, priority 2016, dated 2022).
Counter-ions that a name gives are not always drawn.

Assays:
[1] = target: T1, Recombinant human integrin ανβ5 (Homo sapiens, UniProt P06756+P18084); assay: Solid Phase Receptor Assay (SPRA) for ανβ5 function; type: binding; conditions: for IC50: plate-bound human vitronectin, read-out: αvβ5 SPRA IC50
T1 construct: purchased R&D Systems 2528-AV
Protocol: D. Solid Phase Receptor Assay (SPRA) for ανβ5 Function
Wells were washed 3 times with 150 μL TBS+ and then 150 μL of blocking buffer (TBS+ with 1% bovine serum albumin, Sigma A7906) was added. The plate was incubated for 1 hr at 37° C. and then washed 3× with TBS+ buffer. […] Compounds were diluted to 20 μM and then 1 μL was added to each well of the plate according to a standard template with each sample repeated in triplicate. After incubation for two hours at room temperature, the plate was washed 3× with 150 μL of TBS+ buffer. To each well, 50 μl of biotinylated anti-αν antibody (R&D Systems, BAF1219) at 0.5 μg/mL in TBS+/0.1% BSA at 0.5 μg/mL were added and the plate covered and incubated for 1 hr at room temperature. After washing the plate 3 with 150 μL of TBS+ buffer, 50 μL of streptavidin-conjugated horseradish peroxidase (R&D Systems, DY998) diluted in TBS+ blocking buffer were added to the wells and the plate incubated for 20 min at room temperature. The plate was washed 3× with TBS+ buffer followed by 50 μL of TMB substrate (Sigma T4444) added to each well in the dark and the plate incubated for 5 min at room temperature. 25 μL of 1.0 M phosphoric acid was added as a stop solution and the plates were read at 450 nm using a Spectramax plate reader.

[2] = target: T2, Recombinant human integrin α5β1 (Homo sapiens, UniProt P05556+P08648); assay: Solid Phase Receptor Assay (SPRA) for α5β1 function; type: binding; conditions: for IC50: plate-bound human fibronectin
T2 construct: purchased R&D Systems 3230-A5
T2 sequence (P08648 42-995 limits assumed): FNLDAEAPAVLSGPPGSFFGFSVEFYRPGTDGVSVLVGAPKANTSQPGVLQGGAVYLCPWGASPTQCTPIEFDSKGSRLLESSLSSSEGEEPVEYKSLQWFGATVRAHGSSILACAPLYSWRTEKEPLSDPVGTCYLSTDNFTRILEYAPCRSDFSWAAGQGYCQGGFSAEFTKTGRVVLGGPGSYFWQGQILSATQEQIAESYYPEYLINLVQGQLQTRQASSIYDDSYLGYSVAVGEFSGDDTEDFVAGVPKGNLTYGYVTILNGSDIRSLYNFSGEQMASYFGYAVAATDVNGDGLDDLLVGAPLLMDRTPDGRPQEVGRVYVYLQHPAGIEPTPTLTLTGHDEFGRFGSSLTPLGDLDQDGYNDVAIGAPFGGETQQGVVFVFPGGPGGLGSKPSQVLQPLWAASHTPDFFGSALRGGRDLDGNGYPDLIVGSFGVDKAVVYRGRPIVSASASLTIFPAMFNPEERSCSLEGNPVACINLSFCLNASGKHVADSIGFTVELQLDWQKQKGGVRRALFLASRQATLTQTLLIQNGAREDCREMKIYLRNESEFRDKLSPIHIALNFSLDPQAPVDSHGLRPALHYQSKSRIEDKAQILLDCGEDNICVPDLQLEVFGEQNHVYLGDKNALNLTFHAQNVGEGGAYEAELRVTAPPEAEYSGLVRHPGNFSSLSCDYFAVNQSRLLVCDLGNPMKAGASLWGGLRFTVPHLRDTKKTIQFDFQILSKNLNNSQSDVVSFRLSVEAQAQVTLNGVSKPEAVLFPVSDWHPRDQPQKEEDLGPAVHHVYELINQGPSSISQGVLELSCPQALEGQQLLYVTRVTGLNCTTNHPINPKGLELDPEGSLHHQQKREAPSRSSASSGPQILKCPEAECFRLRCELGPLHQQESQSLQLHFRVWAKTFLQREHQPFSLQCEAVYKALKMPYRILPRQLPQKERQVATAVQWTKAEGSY
T2 sequence (P05556 21-728 limits assumed): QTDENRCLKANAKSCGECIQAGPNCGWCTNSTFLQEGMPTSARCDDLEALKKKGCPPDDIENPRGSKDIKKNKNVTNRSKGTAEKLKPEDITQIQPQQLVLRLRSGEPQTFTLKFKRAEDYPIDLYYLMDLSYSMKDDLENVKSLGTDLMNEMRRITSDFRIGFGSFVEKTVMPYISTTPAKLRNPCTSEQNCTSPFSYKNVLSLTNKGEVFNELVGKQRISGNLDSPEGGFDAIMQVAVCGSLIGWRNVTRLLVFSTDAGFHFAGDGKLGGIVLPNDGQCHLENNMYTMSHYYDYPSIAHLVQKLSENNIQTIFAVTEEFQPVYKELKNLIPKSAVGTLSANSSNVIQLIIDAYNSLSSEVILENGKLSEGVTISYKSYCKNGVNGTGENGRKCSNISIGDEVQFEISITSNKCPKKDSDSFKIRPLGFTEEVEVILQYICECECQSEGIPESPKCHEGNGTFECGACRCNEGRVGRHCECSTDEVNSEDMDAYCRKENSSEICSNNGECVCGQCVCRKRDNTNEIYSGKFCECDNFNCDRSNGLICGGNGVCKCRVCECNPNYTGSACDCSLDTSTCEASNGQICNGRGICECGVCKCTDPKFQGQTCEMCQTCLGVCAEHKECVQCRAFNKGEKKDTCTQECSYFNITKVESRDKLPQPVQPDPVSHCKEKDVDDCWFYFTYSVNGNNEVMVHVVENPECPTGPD
Protocol: A. Solid Phase Receptor Assay (SPRA) for α5β1 Function
Wells were washed 3 times with 150 μL TBS+ and then 150 μL of blocking buffer (TBS+ with 1% bovine serum albumin, Sigma A7906) was added. The plate was incubated for 1 hr at 37° C. and then washed 3× with TBS+ buffer. […] Compounds were diluted to 20 μM and then 1 μL was added to each well of the plate according to a standard template with each sample repeated in triplicate. After incubation for two hours at room temperature, the plate was washed 3× with 150 μL of TBS+ buffer. To each well, 50 μL of biotinylated anti-α5 antibody (R&D Systems, BAF1864) at 0.5 μg/mL in TBS+/0.1% BSA were added and the plate covered and incubated for 1 hr at room temperature. After washing the plate 3× with 150 μL of TBS+ buffer, 50 μL of streptavidin-conjugated horseradish peroxidase (R&D Systems, DY998) diluted in TBS+ blocking buffer were added to the wells and the plate incubated for 20 min at room temperature. The plate was washed 3× with TBS+ buffer followed by 50 μL of room temperature TMB substrate (Sigma, T4444) added to each well in the dark and the plate incubated for 25 min at room temperature. 25 μL of 1.0 M phosphoric acid was added as a stop solution and the plates were read at 450 nm using a Spectramax plate reader.

T1 sequence (P06756 31-992 limits assumed): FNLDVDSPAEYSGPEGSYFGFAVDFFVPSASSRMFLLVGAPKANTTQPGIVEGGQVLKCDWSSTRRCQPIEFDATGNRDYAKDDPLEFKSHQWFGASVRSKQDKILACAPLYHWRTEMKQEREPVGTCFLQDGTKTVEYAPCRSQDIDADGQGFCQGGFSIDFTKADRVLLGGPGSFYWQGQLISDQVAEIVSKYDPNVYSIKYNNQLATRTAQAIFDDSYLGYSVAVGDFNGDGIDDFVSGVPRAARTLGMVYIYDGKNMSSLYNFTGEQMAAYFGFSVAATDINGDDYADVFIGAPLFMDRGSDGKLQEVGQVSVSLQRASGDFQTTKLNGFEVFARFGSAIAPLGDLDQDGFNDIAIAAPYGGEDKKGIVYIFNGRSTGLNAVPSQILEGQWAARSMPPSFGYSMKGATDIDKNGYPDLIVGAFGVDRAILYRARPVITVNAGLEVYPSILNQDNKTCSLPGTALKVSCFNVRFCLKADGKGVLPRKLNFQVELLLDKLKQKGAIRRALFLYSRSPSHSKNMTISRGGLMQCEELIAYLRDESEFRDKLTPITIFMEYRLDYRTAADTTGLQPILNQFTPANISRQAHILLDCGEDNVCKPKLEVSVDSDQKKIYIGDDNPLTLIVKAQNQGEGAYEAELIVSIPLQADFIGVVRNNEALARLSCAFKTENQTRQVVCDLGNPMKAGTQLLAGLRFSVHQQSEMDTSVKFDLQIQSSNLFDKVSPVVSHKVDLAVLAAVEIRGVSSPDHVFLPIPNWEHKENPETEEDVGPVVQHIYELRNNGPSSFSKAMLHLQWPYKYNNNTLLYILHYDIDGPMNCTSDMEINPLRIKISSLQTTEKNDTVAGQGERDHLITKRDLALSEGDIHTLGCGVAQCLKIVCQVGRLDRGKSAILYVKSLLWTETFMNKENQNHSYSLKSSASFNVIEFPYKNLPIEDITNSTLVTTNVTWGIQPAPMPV
T1 sequence (P18084 24-719 limits assumed): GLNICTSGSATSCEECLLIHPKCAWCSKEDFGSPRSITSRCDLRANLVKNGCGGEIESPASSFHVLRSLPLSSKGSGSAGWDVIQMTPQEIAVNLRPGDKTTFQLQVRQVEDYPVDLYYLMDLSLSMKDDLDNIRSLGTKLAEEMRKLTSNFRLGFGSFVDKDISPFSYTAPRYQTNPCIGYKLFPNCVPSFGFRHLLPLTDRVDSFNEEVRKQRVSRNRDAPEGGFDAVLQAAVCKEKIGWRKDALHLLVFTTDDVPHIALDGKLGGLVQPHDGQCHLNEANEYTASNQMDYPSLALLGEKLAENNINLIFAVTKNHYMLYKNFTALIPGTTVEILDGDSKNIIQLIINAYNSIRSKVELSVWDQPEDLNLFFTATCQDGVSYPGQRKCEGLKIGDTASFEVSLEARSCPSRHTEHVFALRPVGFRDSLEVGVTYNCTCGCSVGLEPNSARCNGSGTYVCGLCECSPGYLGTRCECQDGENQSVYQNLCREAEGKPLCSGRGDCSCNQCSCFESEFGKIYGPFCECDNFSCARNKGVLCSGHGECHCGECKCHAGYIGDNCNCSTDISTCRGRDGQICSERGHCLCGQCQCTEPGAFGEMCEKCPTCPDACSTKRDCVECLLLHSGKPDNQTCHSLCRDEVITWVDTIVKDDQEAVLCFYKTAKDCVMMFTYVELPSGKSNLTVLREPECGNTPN

SMILES | IC50 [1] | IC50 [2] | inhibitory activity at ανβ5 (in words) [1] | inhibitory activity at α5β1 (in words) [2]
Cn1nc(CC(CC(=O)O)c2cc(C(F)(F)F)cc(C(C)(C)C(F)(F)F)c2)cc1OCCc1ccc2c(n1)NCCC2 (stereo not drawn) [Example 25, 4-[1-methyl-5-[2-(5,6,7,8-tetrahydro-1,8-naphthyridin-2-yl)ethoxy]pyrazol-3-yl]-3-[3-(2,2,2-trifluoro-1,1-dimethylethyl)-5-(trifluoromethyl)phenyl]butanoic Acid] | 2.9 nM | 12 nM |  | 
Cn1nc(CC(CC(=O)O)c2cc(Br)cc(C(C)(C)C(F)(F)F)c2)cc1OCCc1ccc2c(n1)NCCC2 (stereo not drawn) [Example 26, 3-[3-bromo-5-(2,2,2-trifluoro-1,1-dimethyl-ethyl)phenyl]-4-[1-methyl-5-[2-(5,6,7,8-tetrahydro-1,8-naphthyridin-2-yl)ethoxy]pyrazol-3-yl]butanoic Acid] | 1.8 nM | 16 nM |  | 
Cn1nc(CC(CC(=O)O)c2cc(Cl)cc(C(C)(C)C(F)(F)F)c2)cc1OCCc1ccc2c(n1)NCCC2 (stereo not drawn) [Example 27, 3-(3-chloro-5-(1,1,1-trifluoro-2-methylpropan-2-yl)phenyl)-4-(1-methyl-5-(2-(5,6,7,8-tetrahydro-1,8-naphthyridin-2-yl)ethoxy)-1H-pyrazol-3-yl)butanoic Acid] | 0.5 nM | 18 nM |  | 
Cn1nc(CC(CC(=O)O)c2cc(C#N)cc(C(C)(C)C(F)(F)F)c2)cc1OCCc1ccc2c(n1)NCCC2 (stereo not drawn) [Example 28, 3-[3-cyano-5-(2,2,2-trifluoro-1,1-dimethyl-ethyl)phenyl]-4-[1-methyl-5-[2-(5,6,7,8-tetrahydro-1,8-naphthyridin-2-yl)ethoxyl]pyrazol-3-yl]butanoic Acid Trifluoroacetate] | 0.8 nM | 8.5 nM |  | 
COCC1(c2cc(Cl)cc(C(CC(=O)O)Cc3cc(OCCc4ccc5c(n4)NCCC5)n(C)n3)c2)CCOCC1 (stereo not drawn) [Example 29, 3-(3-chloro-5-(4-(methoxymethyl)tetrahydro-2H-pyran-4-yl)phenyl)-4-(1-methyl-5-(2-(5,6,7,8-tetrahydro-1,8-naphthyridin-2-yl)ethoxy)-1H-pyrazol-3-yl)butanoic Acid] | 0.5 nM | 5.1 nM |  | 
COCC1(c2cc(F)cc(C(CC(=O)O)Cc3cc(OCCc4ccc5c(n4)NCCC5)n(C)n3)c2)CCOCC1 (stereo not drawn) [Example 30, 3-(3-fluoro-5-(4-(methoxymethyl)tetrahydro-2H-pyran-4-yl)phenyl)-4-(1-methyl-5-(2-(5,6,7,8-tetrahydro-1,8-naphthyridin-2-yl)ethoxy)-1H-pyrazol-3-yl)butanoic Acid] | 0.5 nM | 12 nM |  | 
COCC1(c2cc(C(CC(=O)O)Cc3cc(OCCc4ccc5c(n4)NCCC5)n(C)n3)cc(C(F)(F)F)c2)CCOCC1 (stereo not drawn) [Example 31, 3-(3-(4-(methoxymethyl)tetrahydro-2H-pyran-4-yl)-5-(trifluoromethyl)phenyl)-4-(1-methyl-5-(2-(5,6,7,8-tetrahydro-1,8-naphthyridin-2-yl)ethoxy)-1H-pyrazol-3-yl)butanoic Acid] | 3.3 nM | 12 nM |  | 
COc1ccc(C(C)(C)C)cc1C(CC(=O)O)Cc1cc(OCCc2ccc3c(n2)NCCC3)n(C)n1 (stereo not drawn) [Example 32, 3-(5-(tert-butyl)-2-methoxyphenyl)-4-(1-methyl-5-(2-(5,6,7,8-tetrahydro-1,8-naphthyridin-2-yl)ethoxy)-1H-pyrazol-3-yl)butanoic Acid] | 280 nM | 33 nM | low activity | high inhibitory activity
COc1c(C(CC(=O)O)Cc2cc(OCCc3ccc4c(n3)NCCC4)n(C)n2)cccc1C(C)(C)C (stereo not drawn) [Example 33, 3-(3-(tert-butyl)-2-methoxyphenyl)-4-(1-methyl-5-(2-(5,6,7,8-tetrahydro-1,8-naphthyridin-2-yl)ethoxy)-1H-pyrazol-3-yl)butanoic Acid] | 3.1 nM | 3900 nM |  | 
COc1cc(C(C)(C)C)ccc1C(CC(=O)O)Cc1cc(OCCc2ccc3c(n2)NCCC3)n(C)n1 (stereo not drawn) [Example 34, 3-(4-(tert-butyl)-2-methoxyphenyl)-4-(1-methyl-5-(2-(5,6,7,8-tetrahydro-1,8-naphthyridin-2-yl)ethoxy)-1H-pyrazol-3-yl)butanoic Acid] | 2.3 nM | 550 nM |  | 
Cn1nc(CC(CC(=O)O)c2cc(OC(F)(F)F)cc(C(C)(C)C)c2)cc1OCCc1ccc2c(n1)NCCC2 (stereo not drawn) [Example 36, 3-[3-tert-butyl-5-(trifluoromethoxy)phenyl]-4-[1-methyl-5-[2-(5,6,7,8-tetrahydro-1,8-naphthyridin-2-yl)ethoxy]pyrazol-3-yl]butanoic Acid] | 1.1 nM | 7.1 nM |  | 
Cn1nc(CC(CC(=O)O)c2cc(C(C)(C)C)cc(C(F)(F)F)c2)cc1OCCc1ccc2c(n1)NCCC2 (stereo not drawn) [Example 37, 3-[3-tert-butyl-5-(trifluoromethyl)phenyl]-4-[1-methyl-5-[2-(5,6,7,8-tetrahydro-1,8-naphthyridin-2-yl)ethoxyl]pyrazol-3-yl]butanoic Acid] | 6.2 nM | 7.9 nM |  | 
Cn1nc(CC(CC(=O)O)c2cc(F)cc(C(C)(C)C)c2)cc1OCCc1ccc2c(n1)NCCC2 (stereo not drawn) [Example 38, 3-(3-(tert-butyl)-5-fluorophenyl)-4-(1-methyl-5-(2-(5,6,7,8-tetrahydro-1,8-naphthyridin-2-yl)ethoxy)-1H-pyrazol-3-yl)butanoic Acid] | 0.3 nM | 23 nM |  | 
COc1ccc(C(C)C)cc1C(CC(=O)O)Cc1cc(OCCc2ccc3c(n2)NCCC3)n(C)n1 (stereo not drawn) [Example 39, 3-(5-isopropyl-2-methoxyphenyl)-4-(1-methyl-5-(2-(5,6,7,8-tetrahydro-1,8-naphthyridin-2-yl)ethoxy)-1H-pyrazol-3-yl)butanoic Acid Trifluoroacetate] | 96 nM | 31 nM |  | 
CC(C)c1cc(Br)cc(C(CC(=O)O)Cc2cc(OCCc3ccc4c(n3)NCCC4)n(C)n2)c1 (stereo not drawn) [Example 40, 3-(3-bromo-5-isopropyl-phenyl)-4-[1-methyl-5-[2-(5,6,7,8-tetrahydro-1,8-naphthyridin-2-yl)ethoxyl]pyrazol-3-yl]butanoic acid trifluoroacetate] | 1.1 nM | 21 nM |  | 
CC(C)(C)c1cc(Br)cc(C(CC(=O)O)Cc2cc(OCCc3ccc4c(n3)NCCC4)n(CC(F)(F)F)n2)c1 (stereo not drawn) [Example 41, 3-(3-bromo-5-tert-butyl-phenyl)-4-[5-[2-(5,6,7,8-tetrahydro-1,8-naphthyridin-2-yl)ethoxy]-1-(2,2,2-trifluoroethyl)pyrazol-3-yl]butanoic Acid Trifluoroacetate] | 2.2 nM | 6.5 nM |  | 
Cn1nc(CC(CC(=O)O)c2cc(C(C)(C)C)ccc2O)cc1OCCc1ccc2c(n1)NCCC2 (stereo not drawn) [Example 42, 3-(5-tert-butyl-2-hydroxy-phenyl)-4-[1-methyl-5-[2-(5,6,7,8-tetrahydro-1,8-naphthyridin-2-yl)ethoxyl]pyrazol-3-yl]butanoic Acid Sodium Salt] | 6.6 nM | 2.1 nM |  | 
Cn1nc(CC(CC(=O)O)c2cc(C(C)(C)C)ccc2Cl)cc1OCCc1ccc2c(n1)NCCC2 (stereo not drawn) [Example 43, 3-(5-(tert-butyl)-2-chlorophenyl)-4-(1-methyl-5-(2-(5,6,7,8-tetrahydro-1,8-naphthyridin-2-yl)ethoxy)-1H-pyrazol-3-yl)butanoic Acid Trifluoroacetate] | 16.6 nM | 77 nM |  | 
Cc1ccc(C(C)(C)C)cc1C(CC(=O)O)Cc1cc(OCCc2ccc3c(n2)NCCC3)n(C)n1 (stereo not drawn) [Example 44, 3-(5-tert-butyl-2-methyl-phenyl)-4-[1-methyl-5-[2-(5,6,7,8-tetrahydro-1,8-naphthyridin-2-yl)ethoxy]pyrazol-3-yl]butanoic Acid Trifluoroacetate] | 76 nM | 230 nM |  | 
COc1ccc(C#N)cc1C(CC(=O)O)Cc1cc(OCCc2ccc3c(n2)NCCC3)n(C)n1 (stereo not drawn) [Example 46, 3-(5-cyano-2-methoxyphenyl)-4-(1-methyl-5-(2-(5,6,7,8-tetrahydro-1,8-naphthyridin-2-yl)ethoxy)-1H-pyrazol-3-yl)butanoic Acid Trifluoroacetate] | 1 nM | 51 nM |  | 
